Test results reported in ChEMBL document CHEMBL1201862, “PubChem BioAssay data set” (2004).
Activity calls are given as the source filed them.

Columns and labels:
[1] = THP-1 cell cytotoxicity, dose response, cytotoxicity control for Vif-APOBEC3G degradation inhibitor project, THP-1 cells (AID 1117359); format: functional; settings: Human immunodeficiency virus 1, THP-1
[2] = Luminescence Cell-Based Dose Confirmation HTS to Identify Activators of 5'UTR Stem-Loop Driven Alpha-Synuclein mRNA Translation in H4 Neuroglioblastoma Cells. [Related pubchem assays: 1829 (Project Summary), 1814 (Primary HTS)]; format: functional
[3] = Luminescence Cell-Based Dose Response HTS to Identify Activators of Luciferase Translation or Activity in H4 […] Cells. [Related pubchem assays: 1829 (Project Summary), 1814 (Primary HTS)]; format: functional
[4] = biological target: T1, Sentrin-specific protease 7 (Homo sapiens, UniProt Q9BQF6); format: functional;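 further: Luminescence-based dose-response confirmation of ultra-high-throughput screening hits, measuring inhibition of SENP7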
T1 sequence (Q9BQF6 whole entry): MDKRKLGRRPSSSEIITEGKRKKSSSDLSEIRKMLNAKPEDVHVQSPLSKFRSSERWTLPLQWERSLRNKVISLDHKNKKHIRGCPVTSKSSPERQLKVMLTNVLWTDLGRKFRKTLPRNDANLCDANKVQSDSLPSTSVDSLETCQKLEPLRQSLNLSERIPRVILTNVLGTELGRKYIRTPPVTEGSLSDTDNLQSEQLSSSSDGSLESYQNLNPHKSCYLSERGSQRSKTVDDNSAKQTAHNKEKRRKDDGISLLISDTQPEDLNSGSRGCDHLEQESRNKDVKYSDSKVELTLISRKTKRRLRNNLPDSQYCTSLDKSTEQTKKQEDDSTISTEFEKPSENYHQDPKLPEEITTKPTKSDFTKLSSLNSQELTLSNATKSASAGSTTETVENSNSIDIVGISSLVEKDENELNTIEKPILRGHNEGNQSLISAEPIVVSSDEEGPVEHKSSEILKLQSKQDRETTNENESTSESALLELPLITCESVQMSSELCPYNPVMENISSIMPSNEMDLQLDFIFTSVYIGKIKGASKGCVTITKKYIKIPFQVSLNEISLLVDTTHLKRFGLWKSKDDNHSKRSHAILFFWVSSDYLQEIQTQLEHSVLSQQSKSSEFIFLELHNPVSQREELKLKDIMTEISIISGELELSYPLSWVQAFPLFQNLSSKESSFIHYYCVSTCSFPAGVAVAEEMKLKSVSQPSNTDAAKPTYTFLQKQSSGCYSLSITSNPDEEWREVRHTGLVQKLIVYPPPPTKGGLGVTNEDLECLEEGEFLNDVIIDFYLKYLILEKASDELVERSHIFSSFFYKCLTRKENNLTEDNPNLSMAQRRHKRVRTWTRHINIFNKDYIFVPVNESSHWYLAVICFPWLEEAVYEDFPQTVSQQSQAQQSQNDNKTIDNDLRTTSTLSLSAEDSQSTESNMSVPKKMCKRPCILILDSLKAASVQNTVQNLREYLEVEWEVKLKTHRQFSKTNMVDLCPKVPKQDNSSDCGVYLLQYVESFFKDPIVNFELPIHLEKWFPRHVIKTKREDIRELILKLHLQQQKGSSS

[5] = biological target: T2, Sentrin-specific protease 6 (Homo sapiens, UniProt Q9GZR1); format: functional;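 further: Luminescence-based dose-response confirmatory assay of SENP6 inhibition, following up an ultra-high-throughput screen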
T2 sequence (Q9GZR1 whole entry): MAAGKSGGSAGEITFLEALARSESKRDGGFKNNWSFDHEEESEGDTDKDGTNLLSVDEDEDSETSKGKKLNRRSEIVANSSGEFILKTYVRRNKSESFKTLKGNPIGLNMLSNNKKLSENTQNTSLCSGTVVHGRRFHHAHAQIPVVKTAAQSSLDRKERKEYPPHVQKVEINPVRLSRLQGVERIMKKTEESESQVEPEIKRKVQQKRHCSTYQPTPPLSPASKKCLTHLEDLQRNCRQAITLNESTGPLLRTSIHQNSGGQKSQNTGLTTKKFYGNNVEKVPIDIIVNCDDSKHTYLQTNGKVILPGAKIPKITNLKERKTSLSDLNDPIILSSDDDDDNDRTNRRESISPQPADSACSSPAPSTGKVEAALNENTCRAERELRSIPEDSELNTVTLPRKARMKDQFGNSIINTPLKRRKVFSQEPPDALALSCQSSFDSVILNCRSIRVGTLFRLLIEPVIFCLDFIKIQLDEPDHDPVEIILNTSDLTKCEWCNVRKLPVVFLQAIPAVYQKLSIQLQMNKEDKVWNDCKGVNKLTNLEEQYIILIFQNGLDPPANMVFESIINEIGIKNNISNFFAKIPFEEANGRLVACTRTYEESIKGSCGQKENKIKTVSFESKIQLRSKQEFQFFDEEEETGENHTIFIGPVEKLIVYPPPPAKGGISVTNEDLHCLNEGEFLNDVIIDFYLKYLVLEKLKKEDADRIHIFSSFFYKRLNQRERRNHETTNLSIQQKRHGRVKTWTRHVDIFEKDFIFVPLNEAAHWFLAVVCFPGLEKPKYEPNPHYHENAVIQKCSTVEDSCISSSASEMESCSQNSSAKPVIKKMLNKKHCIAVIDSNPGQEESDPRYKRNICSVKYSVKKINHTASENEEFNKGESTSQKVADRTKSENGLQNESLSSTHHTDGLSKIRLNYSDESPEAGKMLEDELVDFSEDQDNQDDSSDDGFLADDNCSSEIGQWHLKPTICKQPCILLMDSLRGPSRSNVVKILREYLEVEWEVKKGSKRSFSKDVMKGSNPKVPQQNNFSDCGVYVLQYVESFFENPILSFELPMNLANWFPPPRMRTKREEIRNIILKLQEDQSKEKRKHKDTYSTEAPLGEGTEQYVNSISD

[6] = cells; format: functional, cell-based
[7] = biological target: T3, Sentrin-specific protease 8 (Homo sapiens, UniProt Q96LD8); format: functional;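 further: luminescence read-out of SENP8 inhibition, dose-response confirmation following an ultra-high-throughput screen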
T3 sequence (Q96LD8 whole entry): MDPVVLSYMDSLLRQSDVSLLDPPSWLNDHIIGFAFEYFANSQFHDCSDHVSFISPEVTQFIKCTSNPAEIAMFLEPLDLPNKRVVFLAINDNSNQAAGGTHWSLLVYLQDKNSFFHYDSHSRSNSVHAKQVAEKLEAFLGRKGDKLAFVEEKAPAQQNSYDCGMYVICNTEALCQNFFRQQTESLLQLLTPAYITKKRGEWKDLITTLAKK

[8] = biological target: T4, Caspase-3 (Homo sapiens, UniProt P42574); format: functional;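 further: Dose-response selectivity test against caspase-3 for candidate inhibitors of sentrin-specific proteases (SENPs)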
T4 sequence (P42574 whole entry): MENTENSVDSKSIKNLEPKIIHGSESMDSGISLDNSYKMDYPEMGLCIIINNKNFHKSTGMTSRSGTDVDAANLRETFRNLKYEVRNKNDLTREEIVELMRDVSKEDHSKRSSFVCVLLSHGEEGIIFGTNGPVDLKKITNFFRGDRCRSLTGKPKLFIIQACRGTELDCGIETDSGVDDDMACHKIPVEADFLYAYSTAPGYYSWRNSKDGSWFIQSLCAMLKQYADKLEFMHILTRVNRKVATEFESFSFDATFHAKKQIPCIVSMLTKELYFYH

[9] = biological target: T5, Oxysterols receptor LXR-beta (Homo sapiens, UniProt P55055); format: functional, cell-based;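 further: Cell-based luminescence dose-response assay of agonist activity at LXR, run as a confirmatory counterscreen to a daf-12 agonist screen; HEK293 cells with Gal4-LXR fusion and GAL4-driven luciferase reporter; agonist potency from rising luciferase signal of a Gal4-LXR reporter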
T5 sequence (P55055 whole entry): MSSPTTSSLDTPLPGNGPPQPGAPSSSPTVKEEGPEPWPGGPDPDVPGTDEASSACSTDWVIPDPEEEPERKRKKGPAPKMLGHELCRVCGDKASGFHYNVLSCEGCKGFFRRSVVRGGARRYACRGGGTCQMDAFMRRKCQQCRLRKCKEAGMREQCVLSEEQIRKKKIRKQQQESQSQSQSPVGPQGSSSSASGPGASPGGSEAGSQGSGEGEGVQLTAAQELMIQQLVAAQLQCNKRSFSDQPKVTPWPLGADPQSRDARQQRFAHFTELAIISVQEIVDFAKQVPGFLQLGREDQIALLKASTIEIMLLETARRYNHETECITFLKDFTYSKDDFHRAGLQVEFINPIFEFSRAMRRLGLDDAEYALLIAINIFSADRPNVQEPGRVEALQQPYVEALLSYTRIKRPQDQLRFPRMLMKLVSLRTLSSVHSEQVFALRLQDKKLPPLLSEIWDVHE

[10] = cells; format: functional, cell-based; remark: listed apart in the source
[11] = tested on: H4; assay: Luminescence Cell-Based Dose Response HTS to Identify Activators of 5'UTR Stem-Loop Driven Prion Protein mRNA Translation in H4 Neuroglioblastoma Cells. [Related pubchem assays: 1829 (Project Summary), 1814 (Primary HTS)]; format: functional; settings: Homo sapiens
[12] = biological target: Nonstructural protein 1 (Influenza A virus, UniProt Q194T2); format: functional, Influenza A virus (A/California/07/2009(H1N1))
Sequence of Nonstructural protein 1 (Q194T2 whole entry): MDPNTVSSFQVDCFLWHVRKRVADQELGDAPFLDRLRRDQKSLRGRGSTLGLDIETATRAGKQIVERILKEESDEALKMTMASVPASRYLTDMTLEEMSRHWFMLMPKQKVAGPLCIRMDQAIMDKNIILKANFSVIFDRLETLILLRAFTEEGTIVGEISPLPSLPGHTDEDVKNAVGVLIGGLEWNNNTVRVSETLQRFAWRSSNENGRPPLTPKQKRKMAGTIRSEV

[13] = cells
[14] = biological target: T6, Aryl hydrocarbon receptor (Homo sapiens, UniProt P35869); assay: Luminescence-based cell-based high throughput dose response assay for activators of the Aryl Hydrocarbon Receptor (AHR). [Related pubchem assays: 2796 (Primary screen (AHR activators in singlicate)), 2845 (Confirmation screen (AHR activators in triplicate)), 434939 (Counterscreen (PXR activators in triplicate)), 2804 (Summary (AHR activators))]; format: ADME
T6 sequence (P35869 whole entry): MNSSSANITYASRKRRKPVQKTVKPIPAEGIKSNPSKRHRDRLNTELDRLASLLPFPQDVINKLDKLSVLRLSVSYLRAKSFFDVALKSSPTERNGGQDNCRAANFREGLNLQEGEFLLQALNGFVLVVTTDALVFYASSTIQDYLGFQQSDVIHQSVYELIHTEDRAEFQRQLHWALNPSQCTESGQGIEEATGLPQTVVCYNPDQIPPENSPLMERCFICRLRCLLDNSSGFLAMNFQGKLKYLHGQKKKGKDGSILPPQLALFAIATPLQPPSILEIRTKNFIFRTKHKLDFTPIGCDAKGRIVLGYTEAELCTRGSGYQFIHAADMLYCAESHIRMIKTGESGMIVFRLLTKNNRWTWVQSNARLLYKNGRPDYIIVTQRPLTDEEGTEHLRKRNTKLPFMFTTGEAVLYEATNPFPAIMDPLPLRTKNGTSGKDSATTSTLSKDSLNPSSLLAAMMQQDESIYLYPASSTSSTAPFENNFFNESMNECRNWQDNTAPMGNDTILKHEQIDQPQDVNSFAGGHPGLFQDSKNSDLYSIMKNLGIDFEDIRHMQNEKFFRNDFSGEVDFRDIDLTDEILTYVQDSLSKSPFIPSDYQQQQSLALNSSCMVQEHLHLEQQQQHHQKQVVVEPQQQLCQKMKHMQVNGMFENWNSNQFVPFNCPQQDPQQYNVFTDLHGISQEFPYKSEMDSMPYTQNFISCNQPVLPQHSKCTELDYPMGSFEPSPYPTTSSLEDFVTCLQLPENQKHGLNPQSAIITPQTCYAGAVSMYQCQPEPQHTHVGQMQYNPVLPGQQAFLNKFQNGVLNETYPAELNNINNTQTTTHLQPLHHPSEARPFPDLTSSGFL

[15] = biological target: T7, Caspase-6 (Homo sapiens, UniProt P55212); assay: human caspase-6 inhibitors, dose response, biochemical, VEID-R110 fluorescence, cherry-pick (AID 720632)
T7 sequence (P55212 whole entry): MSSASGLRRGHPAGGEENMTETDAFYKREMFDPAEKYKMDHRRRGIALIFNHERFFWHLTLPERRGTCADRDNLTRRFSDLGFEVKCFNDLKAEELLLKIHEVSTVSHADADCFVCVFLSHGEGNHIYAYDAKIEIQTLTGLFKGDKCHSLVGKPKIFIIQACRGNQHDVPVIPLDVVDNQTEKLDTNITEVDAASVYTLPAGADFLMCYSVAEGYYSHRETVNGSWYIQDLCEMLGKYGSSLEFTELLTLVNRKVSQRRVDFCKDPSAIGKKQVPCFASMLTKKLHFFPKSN

[16] = biological target: T8, Carboxy-terminal domain RNA polymerase II polypeptide A small phosphatase 1 (Homo sapiens, UniProt Q9GZU7); assay: inhibitors of CTDSP1, concentration-response testing, biochemical assay, absorbance-based, actives from ultra-high-throughput screening (AID 540297); format: functional
T8 sequence (Q9GZU7 whole entry): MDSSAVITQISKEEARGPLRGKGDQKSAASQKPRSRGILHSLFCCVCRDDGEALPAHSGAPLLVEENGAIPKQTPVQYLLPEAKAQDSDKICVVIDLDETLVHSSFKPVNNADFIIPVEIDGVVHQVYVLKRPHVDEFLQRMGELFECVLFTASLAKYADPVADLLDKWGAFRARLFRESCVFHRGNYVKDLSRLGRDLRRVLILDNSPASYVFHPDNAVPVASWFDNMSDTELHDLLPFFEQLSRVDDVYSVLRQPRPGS

[17] = biological target: Kallikrein-7 (Homo sapiens, UniProt P49862); assay: Fluorescence Intensity-based biochemical primary high throughput dose response assay to identify activators of kallikrein-7 (K7) zymogen.
Sequence of Kallikrein-7 (P49862 whole entry): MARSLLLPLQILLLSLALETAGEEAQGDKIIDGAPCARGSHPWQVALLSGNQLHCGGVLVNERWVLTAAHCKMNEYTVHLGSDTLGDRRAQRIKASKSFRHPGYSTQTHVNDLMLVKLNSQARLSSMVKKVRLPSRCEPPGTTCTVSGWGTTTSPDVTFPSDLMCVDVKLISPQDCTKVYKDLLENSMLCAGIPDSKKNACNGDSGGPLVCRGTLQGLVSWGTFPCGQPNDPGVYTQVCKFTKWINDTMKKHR

[18] = P. falciparum Dd2 growth inhibitors, dose response, SYBR Green, dry powder samples, set 9 (AID 1159568); format: functional, cell-based

Clc1ccc(CNc2ccc(CNc3nc[nH]n3)cc2)c(Cl)c1
CC50 [1]: > 40 µM (active)

c1ccc(N=Nc2ccc3cccccc2-3)cc1
EC50 [2]: 0.771 µM (active)
EC50 [3]: 1.1 µM (active)
IC50 [4]: 4.59 µM (active)
IC50 [5]: 13.9 µM (active)
EC50 [6]: 6.29 µM (active)
IC50 [7]: 22.3 µM (active)
IC50 [8]: 24.5 µM (active)
EC50 [9]: > 67.5 µM (inactive)
EC50 [10]: > 350 µM (not active)
EC50 [11]: > 120 µM (not active)
IC50 [12]: 10.8 µM (active)
EC50 [13]: > 67.5 µM (inactive)

COc1ccc(C)cc1N=C(N)Nc1nc(C)cc(C)n1
EC50 [14]: 3.95 µM (active)

O=C(CCc1c[nH]c2ccccc12)N1CCN(c2ccc(O)cc2)CC1
CC50 [1]: > 40 µM (active)

COc1ccc(S(=O)(=O)NNC(=O)Cc2csc(C)n2)cc1[N+](=O)[O-]
AC50 [15]: 8.98 µM (active)
IC50 [16]: 16.3 µM (active)

CCOC(=O)c1c(C)nn(Cc2cccc(Cl)c2)c1N
CC50 [1]: > 40 µM (active)

COc1ccc(NC(=O)c2ccc(NC(=O)CSc3nc(N)cc(O)n3)cc2)cc1
EC50 [17]: 22.4 µM (inactive)

COC(=O)C1=NN(c2ccccc2)C2C(=O)N(c3ccccc3OC)C(=O)C12 (stereo not drawn)
EC50 [17]: > 69.5 µM (inactive)

CCCc1cc(NCCOCCO)n2c(nc3ccccc32)c1C#N
EC50 [17]: > 2.57 µM (active)

C[C@@H]1CN([C@H](C)CO)C(=O)c2ccccc2-c2ccccc2CO[C@H]1CN(C)C(=O)[C@H](Cc1ccccc1)N(C)C
AC50 [18]: 11.9 µM (active)

CCCC#Cc1ccc2c(c1)O[C@H](CN(C)Cc1ccccn1)[C@H](C)CN([C@@H](C)CO)S2(=O)=O
AC50 [18]: 3.94 µM (active)
